What was measured:
WT ULK1 = WT ULK1 (Homo sapiens (Human), UniProt O75385); test: in vitro kinase assay, WT ULK1, MBP substrate, radiolabeled ATP; assay type: biochemical; details: 10-μM MBP, 30-μM γ-32P-ATP; triplicate, ten-dose, 3-fold serial dilution from 1 μM
Description: (§1) WT ULK1 (left) and WT ULK2 (right) were assayed using 10-μM MBP in the presence of 30-μM radiolabeled γ-^32P-ATP.
(§2) To further examine how ULK1 regulates autophagy, we sought to identify small molecule ATP competitive kinase inhibitors of ULK1. Screening a library of chemical compounds for inhibitors of ULK1 kinase activity in vitro, we identified a lead compound that was further elaborated through a medicinal chemistry effort to produce compound 14. […] To further characterize the ability of compound 14 and related derivatives to inhibit ULK1 in cells, we tested the ability of these compounds to inhibit the phosphorylation of Vps34 Ser249 when epitope-tagged Vps34 was co-expressed in HEK293T cells with a wild-type ULK1 cDNA. Screening 40 compounds, we found compound 14 inhibited P-Vps34 on overexpressed Vps34 when used at ˜5 μM (FIG. 7B). We next examined the sensitivity of phosphorylation of Vps34 Serine 249 versus Beclin Serine 15 to two structurally distinct ULK1 inhibitors, when cDNAs bearing each were introduced into HEK293T cells. […] (FIG. 11A).

ULK1 [1] = test: phosphorylation of ULK1 substrates (Vps34 Ser249, Beclin Ser15) in HEK293T cells co-expressing wild-type ULK1; assay type: cell-based, human
Description: At 24-hr post-transfection, cells were treated with a panel of putative ULK1 competitive inhibitors in a dose-response manner (1, 10, 50 μM). Cellular lysates were isolated after 1 hr of treatment and immunoblotted with the indicated antibodies. Representative results for compound 14 are shown.
FIG. 7C: HEK293T cells were transfected with WT or KI ULK1 and WT Vps34 (left) or WT Flag-tagged Beclin1 (WT Beclin1; right). At 24-hr post-transfection, cells were treated with compound 14 (10 μM) or DMSO. Cellular lysates were isolated after 1 hr of treatment and immunoblotted with the indicated antibodies.
For transient expression in HEK293T cells were transfected with 2 ug each DNA plasmid per 6 cm dish using Lipofectamine 2000 (Invitrogen) following the manufacturer's protocol. Cells were harvested 24 hours after transfection and rinsed once with ice-cold PBS and lysed in boiling SDS lysis buffer (10 mM Tris pH7.5, 100 mM NaCl, 1% SDS). After trituration, lysates were equilibrated for protein levels using the BCA method (Pierce) and resolved on 8 to 15% SDS-PAGE Phos-Tag™ gels according to the manufacturer's instructions. Briefly, Phos-Tag™ AAL-107 (HARD #304-93521) was added to SDS-PAGE acryamide mixture at a final concentration of 50 μM along with MnCl2 at a final concentration of 100 μM. […]

WT ULK2 = WT ULK2 (Homo sapiens (Human), UniProt Q8IYT8); test: in vitro kinase assay, WT ULK2, MBP substrate, radiolabeled ATP; assay type: biochemical; details: 10-μM MBP, 30-μM γ-32P-ATP; triplicate, ten-dose, 3-fold serial dilution from 1 μM
Chain of WT ULK2 (Q8IYT8 whole entry): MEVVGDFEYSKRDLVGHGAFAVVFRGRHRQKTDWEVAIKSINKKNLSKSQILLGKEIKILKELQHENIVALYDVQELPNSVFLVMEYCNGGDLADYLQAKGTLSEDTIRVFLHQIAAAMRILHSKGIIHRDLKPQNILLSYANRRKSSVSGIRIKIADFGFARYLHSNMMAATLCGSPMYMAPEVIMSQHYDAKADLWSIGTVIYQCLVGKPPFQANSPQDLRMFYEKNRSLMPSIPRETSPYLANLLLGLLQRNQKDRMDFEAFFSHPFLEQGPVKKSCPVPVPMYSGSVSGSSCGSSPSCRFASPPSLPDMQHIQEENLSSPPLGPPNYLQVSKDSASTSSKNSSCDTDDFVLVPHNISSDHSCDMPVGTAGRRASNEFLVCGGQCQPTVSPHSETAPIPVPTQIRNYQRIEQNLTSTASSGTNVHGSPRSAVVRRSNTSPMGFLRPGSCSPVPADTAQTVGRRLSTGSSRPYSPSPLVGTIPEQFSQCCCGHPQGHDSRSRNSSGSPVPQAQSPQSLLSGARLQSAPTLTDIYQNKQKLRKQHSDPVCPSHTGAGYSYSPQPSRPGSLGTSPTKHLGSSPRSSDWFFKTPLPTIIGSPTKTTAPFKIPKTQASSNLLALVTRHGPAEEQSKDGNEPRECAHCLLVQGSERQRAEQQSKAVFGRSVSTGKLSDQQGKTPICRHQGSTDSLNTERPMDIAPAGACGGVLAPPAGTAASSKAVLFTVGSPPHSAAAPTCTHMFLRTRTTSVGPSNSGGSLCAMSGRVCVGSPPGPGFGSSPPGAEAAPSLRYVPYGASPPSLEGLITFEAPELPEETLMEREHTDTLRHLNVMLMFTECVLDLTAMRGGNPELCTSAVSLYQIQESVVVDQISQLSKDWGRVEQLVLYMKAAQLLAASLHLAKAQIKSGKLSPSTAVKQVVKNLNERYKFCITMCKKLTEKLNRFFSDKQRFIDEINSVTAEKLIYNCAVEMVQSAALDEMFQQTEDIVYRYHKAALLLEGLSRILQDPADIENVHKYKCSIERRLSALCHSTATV
Description: as §1, §2

[2] = tested on: murine Kras p53 lung carcinoma cells; test: AnnexinV apoptosis in Kras p53 lung carcinoma cells; assay type: cell-based; details: selectively in the nutrient-starved state
Description: (§3) For flow cytometry analysis, cells were collected at the appropriate time point, washed once in PBS, trypsinized and pelleted. For Annexin V staining, cells were washed in 1× Annexin V buffer and treated as described by the Annexin V staining protocol (BD Pharmingen, San Diego, Calif.). Briefly, cells were resuspended in Annexin V buffer to a concentration of one million per mL, 100,000 cells were then stained with 5 μL of phycoerythrin (PE)-conjugated Annexin V antibody (BD Pharmingen, San Diego, Calif.) and 5 μL of 7-amino-actinomycin D (7AAD) and then incubated at room temperature for 15 minutes. 400 μL of Annexin V buffer was then added to each sample with gentle mixing. Stained cells were analyzed using a FACScan flow cytometer (Becton Dickinson, San Jose, Calif.). Flow cytometry data was analyzed using FlowJo 8.6 software (Tree Star Inc., Ashland, Oreg.).
(§4) There has been great interest in the role of autophagy in the survival of tumor cells, particular tumor cells faced with metabolic stress from chemotherapies or targeted therapeutics. We next examined whether compound 14 would promote apoptosis in tumor cells similar to the MEFs, selectively under conditions in which autophagy is actively engaged. […]

U87MG glioblastoma cells = test: AnnexinV apoptosis in U87MG cells; assay type: cell-based; details: selectively in the nutrient-starved state
Description: as §3, §4

ULK1 [3] = target: ULK1 (Homo sapiens (Human), UniProt O75385); test: ULK1 inhibition assay (Table 1); assay type: biochemical; details: * = tested as a mixture of regioisomers
Chain of ULK1 (Homo sapiens (Human), UniProt O75385) (O75385 whole entry, species assumed): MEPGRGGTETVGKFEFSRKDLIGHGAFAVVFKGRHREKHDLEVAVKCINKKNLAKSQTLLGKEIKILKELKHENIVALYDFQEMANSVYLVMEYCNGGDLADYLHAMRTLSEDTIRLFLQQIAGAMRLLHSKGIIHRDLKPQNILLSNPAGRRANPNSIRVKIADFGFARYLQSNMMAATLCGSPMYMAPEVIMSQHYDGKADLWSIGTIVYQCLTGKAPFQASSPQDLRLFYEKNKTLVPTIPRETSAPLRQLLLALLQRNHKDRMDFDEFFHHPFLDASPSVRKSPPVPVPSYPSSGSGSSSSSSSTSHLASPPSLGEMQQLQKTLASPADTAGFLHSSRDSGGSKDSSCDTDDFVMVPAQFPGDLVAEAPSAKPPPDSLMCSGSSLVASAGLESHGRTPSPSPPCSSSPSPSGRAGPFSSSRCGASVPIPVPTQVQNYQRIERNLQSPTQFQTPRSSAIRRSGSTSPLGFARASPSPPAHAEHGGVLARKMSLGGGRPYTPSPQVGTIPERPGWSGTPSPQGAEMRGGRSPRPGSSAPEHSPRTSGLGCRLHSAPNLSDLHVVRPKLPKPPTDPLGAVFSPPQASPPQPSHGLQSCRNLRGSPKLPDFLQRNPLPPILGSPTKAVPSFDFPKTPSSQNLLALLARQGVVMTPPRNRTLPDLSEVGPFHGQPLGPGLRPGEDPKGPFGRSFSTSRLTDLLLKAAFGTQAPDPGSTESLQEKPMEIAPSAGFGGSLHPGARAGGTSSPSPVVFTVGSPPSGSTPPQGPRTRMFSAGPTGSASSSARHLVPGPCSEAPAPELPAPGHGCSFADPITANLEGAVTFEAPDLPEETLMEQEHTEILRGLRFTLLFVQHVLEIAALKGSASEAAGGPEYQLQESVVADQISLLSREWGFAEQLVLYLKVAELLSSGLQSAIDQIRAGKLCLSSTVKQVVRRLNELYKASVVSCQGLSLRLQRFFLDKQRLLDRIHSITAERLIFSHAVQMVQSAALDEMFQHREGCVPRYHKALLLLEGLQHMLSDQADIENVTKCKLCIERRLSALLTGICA

AuroraA kinase = AuroraA kinase (Homo sapiens (Human), UniProt O14965); test: classic in vitro kinase assay, dose-response (Reaction Biology); assay type: biochemical; details: dose-response curves
Chain of AuroraA kinase (O14965 whole entry): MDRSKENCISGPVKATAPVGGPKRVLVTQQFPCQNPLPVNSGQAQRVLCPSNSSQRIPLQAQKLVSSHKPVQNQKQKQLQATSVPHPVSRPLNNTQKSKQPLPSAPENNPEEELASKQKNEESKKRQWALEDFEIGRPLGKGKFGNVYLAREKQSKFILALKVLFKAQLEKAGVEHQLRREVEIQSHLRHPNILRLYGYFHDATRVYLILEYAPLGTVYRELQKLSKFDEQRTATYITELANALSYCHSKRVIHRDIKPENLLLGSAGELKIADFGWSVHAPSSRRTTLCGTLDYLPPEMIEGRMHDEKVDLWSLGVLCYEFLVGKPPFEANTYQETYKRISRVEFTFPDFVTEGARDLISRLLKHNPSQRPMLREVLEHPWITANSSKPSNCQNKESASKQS
Description: (§5) Kinase inhibitor specificity profiling assays were first carried out using DiscoveRx KINOMEscan competition binding assay against a panel of 456 kinases (www dot discoverx dot corn) using 1 μM compound 14.
(§6) To use a more well-established measure of the selectivity of compound 14 against its top binding kinases, we examined dose-response curves for its inhibition of these kinases in a classic in vitro kinase assays. Here we tested the ten kinases most suppressed by compound 14 by the ATP binding assay. […] It is important to note that even though compound 14 inhibits these 4 kinase quite equivalently across all of the different assays we have examined, this is still greater selectivity than all but a handful of widely used ATP-competitive kinases inhibitors widely used in clinical oncology today. We next examined the ability of compound 14 to suppress signaling downstream of various kinases in cells in culture. […] Similarly, compound 14 inhibited FAK and AuroraA comparably to ULK1 in MEFs as well.

JAK2 = JAK2 (Homo sapiens (Human), UniProt O60674); test: as above; assay type: biochemical; details: dose-response curves
Chain of JAK2 (O60674 whole entry): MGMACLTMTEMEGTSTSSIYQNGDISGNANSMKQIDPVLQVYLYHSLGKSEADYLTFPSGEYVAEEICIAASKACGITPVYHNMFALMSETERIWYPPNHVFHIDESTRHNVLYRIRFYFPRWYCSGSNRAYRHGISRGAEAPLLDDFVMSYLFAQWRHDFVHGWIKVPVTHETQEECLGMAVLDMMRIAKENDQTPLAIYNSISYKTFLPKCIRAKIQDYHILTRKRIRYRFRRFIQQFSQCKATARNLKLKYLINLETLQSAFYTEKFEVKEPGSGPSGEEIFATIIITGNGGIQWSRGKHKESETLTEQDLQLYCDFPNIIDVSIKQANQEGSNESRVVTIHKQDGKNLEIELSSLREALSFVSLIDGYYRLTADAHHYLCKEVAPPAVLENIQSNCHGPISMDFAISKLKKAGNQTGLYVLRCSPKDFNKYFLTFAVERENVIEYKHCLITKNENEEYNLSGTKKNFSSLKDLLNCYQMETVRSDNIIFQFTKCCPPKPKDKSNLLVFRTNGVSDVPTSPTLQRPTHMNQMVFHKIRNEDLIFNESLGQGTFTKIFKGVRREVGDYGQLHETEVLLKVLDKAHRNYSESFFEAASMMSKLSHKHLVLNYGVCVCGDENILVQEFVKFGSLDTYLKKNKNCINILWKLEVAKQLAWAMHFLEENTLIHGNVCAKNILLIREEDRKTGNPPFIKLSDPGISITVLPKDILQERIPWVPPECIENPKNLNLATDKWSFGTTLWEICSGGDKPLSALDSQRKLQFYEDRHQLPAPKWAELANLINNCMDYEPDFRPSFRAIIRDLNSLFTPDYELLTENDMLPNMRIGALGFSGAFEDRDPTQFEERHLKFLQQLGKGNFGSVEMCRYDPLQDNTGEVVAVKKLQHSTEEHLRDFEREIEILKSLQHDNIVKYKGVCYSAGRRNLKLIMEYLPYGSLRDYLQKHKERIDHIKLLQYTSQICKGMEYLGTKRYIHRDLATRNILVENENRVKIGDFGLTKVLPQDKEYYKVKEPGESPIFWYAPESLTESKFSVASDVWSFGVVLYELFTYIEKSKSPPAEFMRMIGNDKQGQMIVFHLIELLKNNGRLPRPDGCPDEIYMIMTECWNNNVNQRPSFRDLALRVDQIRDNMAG
Description: as §5, §6

FAK = FAK (Homo sapiens (Human), UniProt Q05397); test: as above; assay type: biochemical; details: dose-response curves
Chain of FAK (Q05397 whole entry): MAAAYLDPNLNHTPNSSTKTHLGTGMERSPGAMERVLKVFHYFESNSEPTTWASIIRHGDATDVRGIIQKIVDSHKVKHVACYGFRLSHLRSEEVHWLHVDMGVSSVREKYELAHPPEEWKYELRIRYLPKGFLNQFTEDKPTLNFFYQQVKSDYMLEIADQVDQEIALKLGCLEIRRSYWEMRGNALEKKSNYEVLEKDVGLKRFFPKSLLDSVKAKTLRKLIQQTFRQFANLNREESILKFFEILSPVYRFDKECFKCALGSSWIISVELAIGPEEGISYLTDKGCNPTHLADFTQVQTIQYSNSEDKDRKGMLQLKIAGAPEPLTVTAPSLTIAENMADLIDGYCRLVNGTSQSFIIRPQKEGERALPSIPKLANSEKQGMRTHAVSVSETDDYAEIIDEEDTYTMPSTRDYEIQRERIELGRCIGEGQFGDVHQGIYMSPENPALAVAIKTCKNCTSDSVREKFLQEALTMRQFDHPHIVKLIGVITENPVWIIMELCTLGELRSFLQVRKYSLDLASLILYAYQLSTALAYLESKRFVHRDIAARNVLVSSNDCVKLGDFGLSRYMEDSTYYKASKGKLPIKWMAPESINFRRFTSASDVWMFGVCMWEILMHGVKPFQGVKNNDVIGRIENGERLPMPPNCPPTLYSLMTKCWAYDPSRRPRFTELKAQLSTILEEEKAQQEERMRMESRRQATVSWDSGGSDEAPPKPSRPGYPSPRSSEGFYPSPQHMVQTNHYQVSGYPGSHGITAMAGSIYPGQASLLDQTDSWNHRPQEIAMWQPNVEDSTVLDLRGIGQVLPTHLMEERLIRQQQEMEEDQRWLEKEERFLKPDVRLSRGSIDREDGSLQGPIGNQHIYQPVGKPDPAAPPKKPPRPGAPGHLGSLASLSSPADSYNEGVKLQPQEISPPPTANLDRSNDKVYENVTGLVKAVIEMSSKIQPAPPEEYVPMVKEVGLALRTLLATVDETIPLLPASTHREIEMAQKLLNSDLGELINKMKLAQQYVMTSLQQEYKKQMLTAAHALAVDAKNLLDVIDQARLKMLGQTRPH
Description: as §5, §6

Chain of WT ULK1 (O75385 whole entry): as the sequence (O75385 whole entry, species assumed) above

Structure (SMILES): CNC(=O)c1ccccc1Nc1nc(Nc2cc(OC)c(OC)c(OC)c2)ncc1Br [compound 14, 2-(5-bromo-2-(3,4,5-trimethoxyphenylamino)pyrimidin-4-ylamino)-N-methylbenzamide]
- IC50 (WT ULK1): 0.107 µM
- inhibition of Beclin Ser15 and Vps34 Ser249 phosphorylation (ULK1 [1]; 10 μM, 1 hr): inhibited Beclin Ser15 and Vps34 Ser249 to comparable extents
- concentration inhibiting P-Vps34 on overexpressed Vps34 (ULK1 [1]; WT ULK1 + Flag-Vps34, 1 hr treatment): ~5 µM
- IC50 (WT ULK2): 0.711 µM
- apoptosis (AnnexinV+ cells) [2]: promoted apoptosis
- apoptosis (AnnexinV+ cells) (U87MG glioblastoma cells): promoted apoptosis
- IC50 (ULK1 [3]): < 200 nM
- inhibition relative to ULK1 (AuroraA kinase): equivalently inhibited
- inhibition relative to ULK1 (JAK2): equivalently inhibited
- inhibition relative to ULK1 (FAK): equivalently inhibited

From patent publication US10266549B2, “ULK1 inhibitors and methods using same” (SALK INSTITUTE FOR BIOLOGICAL STUDIES, priority 2014, dated 2019)
